Source: US11952365B2, “Anti-viral compounds” (Aligos Therapeutics, Inc., priority 2020, dated 2024)
Where two headings read alike, the source gives them in different places.

Assays:
[1] = test system: SARS-CoV-2-GHB-03021/2020; test: SARS-CoV-2 Infection Model in Huh7 Cells; assay type: cell-based; conditions: Severe acute respiratory syndrome coronavirus 2, Huh-7, 96 h, SARS-CoV-2, day 4 p.i., MTS
[2] = Cytotoxicity plates without OC43 virus (cell-titer-glo); assay type: cell-based, human; conditions: human; HeLa cells without OC43 virus, class symbols
How it was run: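 Run as a virus-free counterpart of the OC43 cytopathic-effect assay. Attached HeLa cells received compound dilutions in EMEM with 2% FBS and were kept 6 days at 33 °C. Cell viability was then measured by CellTiter-Glo luminescence.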

in vitro [3] = conditions: human
in vitro [4] = conditions: African green monkey, VeroE6 + CP (CC50)
[5] = test system: human beta-coronavirus OC43; test: microbe, parasite or virus in culture; assay type: cell-based; conditions: Betacoronavirus 1, OC43, HeLa, 144 h
human cathepsin L = molecular target: T1, human cathepsin L (Homo sapiens, UniProt P07711); test: cathepsin L assay; assay type: biochemical; conditions: 10 pM human cathepsin L, Z-FR-AMC 2 μM, class symbols
T1 construct: purchased R&D Systems
How it was run: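 Reactions began by adding 2 μM (final) Z-FR-AMC substrate to 10 pM human cathepsin L that had been preincubated 30 min with inhibitor. Kinetic AMC fluorescence at 355/460 nm over 30 min at 2-min intervals; four-parameter fitting gave IC50 values.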

HRV3C = HRV3C (Human rhinovirus 14, UniProt P03303); test: HRV3C protease assay (duplex, SAMDI-MS); assay type: biochemical, HRV; conditions: 30 mins preincubation
How it was run: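 Readout is SAMDI mass spectrometry: biotinylated substrates, products and internal standards were immobilized on neutravidin monolayers and product formation taken as the AUC ratio to internal standard. Reactions ran 30 min at ambient temperature after 30 min compound preincubation, in duplex with 3CLpro. IC50 values came from four-parameter curve fitting.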

[6] = test system: SARS-CoV-2-GHB-03021/2020; test: microbe, parasite or virus in culture; assay type: cell-based
3CLpro = 3CLpro (Severe acute respiratory syndrome coronavirus 2, UniProt P0DTD1); test: SARS-CoV-2 3CLpro protease assay (duplex, SAMDI-MS); assay type: biochemical; set-up: For the duplex assay, 3CLpro and HRV3C was added; conditions: 30 mins preincubation, class symbols
[7] = Vero E6-eGFP cells with CP-100356, absence of virus, MTS, numeric bounds
[8] = OC43 in HeLa cells, 6 days at 33° C., class symbols, read-out: EC50
[9] = HRV3C, bound, read-out: HRV IC50
[10] = Severe acute respiratory syndrome coronavirus 2, Vero C1008, 96 h; read-out: VeroE6 + CP (EC50)
[11] = HRV3C, class symbols, read-out: HRV IC50
[12] = 3CLpro, read-out: SARS-Cov-2 IC50
[13] = Vero E6-eGFP cells with CP-100356, absence of virus, MTS, class symbols

Structure (SMILES): COc1cccc2[nH]c(C(=O)N3C[C@@H]4CCC[C@@H]4[C@H]3C(=O)N[C@@H](C[C@@H]3CCCNC3=O)C(=O)CO)cc12 [Compound 41, (1S,3aR,6aS)—N-[(2S)-4-hydroxy-3-oxo-1-[(3S)-2-oxopiperidin-3-yl]butan-2-yl]-2-(4-methoxy-1H-indole-2-carbonyl)-hexahydro-1H-cyclopenta[c]pyrrole-1-carboxamide]
- EC50 ([1]; class symbols): 1 to 10 µM
- CC50 at 6 days [2]: > 10 µM
- CC50 (in vitro [3]): > 100 µM
- CC50 (in vitro [4]; [7]): > 100 µM
- EC50 [5, 8]: < 0.1 µM
- IC50 (human cathepsin L): ≥ 10 µM
- IC50 (HRV3C; [9]): > 10 µM
- EC50 [6, 10]: 1 to 10 µM

Structure (SMILES): O=C(NCc1ccccc1)C(=O)[C@H](C[C@@H]1CCNC1=O)NC(=O)[C@@H]1C[C@@H](C2CCCCC2)CN1C(=O)c1cc2ccccc2[nH]1 [Compound 20]
- EC50 ([1]; numeric bounds): > 100 µM
- CC50 at 6 days [2]: > 10 µM
- CC50 (in vitro [3]): 1 to 10 µM
- EC50 [5, 8]: < 0.1 µM
- IC50 (human cathepsin L): ≥ 10 µM
- IC50 (HRV3C; [11]): 0.2 to 2 µM
- IC50 (3CLpro; [12]): 0.2 to 2 µM
- EC50 [6, 10]: 1 to 10 µM

Structure (SMILES): O=C1NCC[C@H]1C[C@H](NC(=O)[C@@H]1[C@H]2CCC[C@H]2CN1C(=O)c1cc2c(Cl)cccc2[nH]1)C(=O)COCc1ccccc1 [Compound 60A, (1S,3aR,6aS)—N-[(2S)-4-(benzyloxy)-3-oxo-1-[(3S)-2-oxopyrrolidin-3-yl]butan-2-yl]-2-(4-chloro-1H-indole-2-carbonyl)-hexahydro-1H-cyclopenta[c]pyrrole-1-carboxamide]
- EC50 ([1]; class symbols): 1 to 10 µM
- CC50 at 6 days [2]: > 10 µM
- CC50 (in vitro [3]): 1 to 10 µM
- CC50 (in vitro [4]; [7]): > 100 µM
- EC50 [5, 8]: < 0.1 µM
- IC50 (human cathepsin L): ≥ 10 µM
- IC50 (HRV3C; [9]): > 10 µM
- IC50 (3CLpro; [12]): 0.2 to 2 µM
- EC50 [6, 10]: 1 to 10 µM

Structure (SMILES): COc1cccc2[nH]c(C(=O)N3C[C@]4(C[C@H]3C(=O)NC(C[C@@H]3CCCNC3=O)C(=O)C(=O)NCc3ccccc3)CC4(F)F)cc12 (stereo partly drawn) [Compound 33, N-benzyl-3-{[(3S,6S)-1,1-difluoro-5-(4-methoxy-1H-indole-2-carbonyl)-5-azaspiro[2.4]heptan-6-yl]formamido}-2-oxo-4-[(3S)-2-oxopiperidin-3-yl]butanamide]
- EC50 ([1]; class symbols): 1 to 10 µM
- CC50 at 6 days [2]: > 10 µM
- CC50 (in vitro [3]): > 100 µM
- CC50 (in vitro [4]; [7]): > 100 µM
- EC50 [5, 8]: 0.1 to 1 µM
- IC50 (human cathepsin L): 0.1 to 1 µM
- IC50 (HRV3C; [11]): 0.2 to 2 µM
- IC50 (3CLpro; [12]): 0.02 to 0.2 µM
- EC50 [6, 10]: < 1 µM

Structure (SMILES): O=C1NCC[C@H]1C[C@H](NC(=O)[C@@H]1[C@H]2CCC[C@H]2CN1C(=O)c1cc2c(Cl)cc(F)cc2[nH]1)C(=O)CO [Compound 90, (1S,3aR,6aS)-2-(4-chloro-6-fluoro-1H-indole-2-carbonyl)-N-[(2S)-4-hydroxy-3-oxo-1-[(3S)-2-oxopyrrolidin-3-yl]butan-2-yl]-hexahydro-1H-cyclopenta[c]pyrrole-1-carboxamide]
- EC50 ([1]; class symbols): < 1 µM
- CC50 at 6 days [2]: > 10 µM
- CC50 (in vitro [3]): > 50 µM
- CC50 (in vitro [4]; [7]): > 100 µM
- EC50 [5, 8]: < 0.1 µM
- IC50 (human cathepsin L): ≥ 10 µM
- IC50 (HRV3C; [11]): 2 to 20 µM
- IC50 (3CLpro; [12]): < 0.02 µM
- EC50 [6, 10]: < 1 µM

Structure (SMILES): O=C(NCCCC(F)(F)F)C(=O)[C@H](C[C@@H]1CCNC1=O)NC(=O)[C@@H]1[C@H]2CCC[C@H]2CN1C(=O)c1cc2c(Cl)cc(Cl)cc2[nH]1 [Compound 182]
- EC50 ([1]; numeric bounds): > 10 µM
- CC50 (in vitro [3]): 1 to 10 µM
- CC50 (in vitro [4]; [13]): > 10 µM
- IC50 (human cathepsin L): ≥ 10 µM
- IC50 (HRV3C; [9]): > 10 µM
- IC50 (3CLpro; [12]): 0.2 to 2 µM
- EC50 [6, 10]: 1 to 10 µM

Structure (SMILES): CS(=O)(=O)c1cccc2[nH]c(C(=O)N3C[C@@H]4CCC[C@@H]4[C@H]3C(=O)N[C@@H](C[C@@H]3CCNC3=O)C(=O)CO)cc12 [Compound 150, (1S,3aR,6aS)—N-[(2S)-4-hydroxy-3-oxo-1-[(3S)-2-oxopyrrolidin-3-yl]butan-2-yl]-2-(4-methanesulfonyl-1H-indole-2-carbonyl)-hexahydro-1H-cyclopenta[c]pyrrole-1-carboxamide]
- EC50 ([1]; numeric bounds): > 50 µM
- CC50 at 6 days [2]: > 10 µM
- CC50 (in vitro [3]): > 50 µM
- CC50 (in vitro [4]): > 50 µM
- EC50 ([5]; OC43 in HeLa cells, 6 days at 33° C., bound, read-out: EC50): > 10 µM
- IC50 (human cathepsin L): ≥ 10 µM
- IC50 (3CLpro; SARS-Cov-2 IC50, 3CLpro): 0.2 to 2 µM
- EC50 ([6]; Severe acute respiratory syndrome coronavirus 2, Vero C1008, 96 h, read-out: VeroE6 + CP (EC50)): > 50 µM

Structure (SMILES): O=C(NC1CC1)C(=O)[C@H](C[C@@H]1CCNC1=O)NC(=O)[C@@H]1CC2(CCN1C(=O)c1cc3ccccc3o1)CC2 [Compound 181]
- EC50 ([1]; class symbols): 1 to 10 µM
- CC50 (in vitro [3]): > 10 µM
- CC50 (in vitro [4]; [7]): > 50 µM
- IC50 (human cathepsin L): 1 to 10 µM
- IC50 (HRV3C; [11]): 0.2 to 2 µM
- IC50 (3CLpro; [12]): 0.02 to 0.2 µM
- EC50 [6, 10]: 1 to 10 µM

Structure (SMILES): O=C(NC1CC1)C(=O)[C@H](C[C@@H]1CCNC1=O)NC(=O)[C@@H]1CC2(CCN1C(=O)c1cc3c(C4CC4)cccc3[nH]1)CC2 [Compound 180]
- EC50 ([1]; class symbols): 1 to 10 µM
- CC50 (in vitro [3]): > 10 µM
- CC50 (in vitro [4]; [7]): > 50 µM
- IC50 (human cathepsin L): 1 to 10 µM
- IC50 (HRV3C; [11]): 0.2 to 2 µM
- IC50 (3CLpro; [12]): 0.02 to 0.2 µM
- EC50 [6, 10]: 1 to 10 µM

Structure (SMILES): CC(C)CCCNC(=O)C(=O)[C@H](C[C@@H]1CCNC1=O)NC(=O)[C@@H]1[C@H]2CCC[C@H]2CN1C(=O)c1cc2c(Cl)cc(Cl)cc2[nH]1 [Compound 183]
- EC50 ([1]; class symbols): 1 to 10 µM
- CC50 (in vitro [3]): 1 to 10 µM
- CC50 (in vitro [4]; [13]): 1 to 10 µM
- IC50 (human cathepsin L): 1 to 10 µM
- IC50 (HRV3C; [9]): > 10 µM
- IC50 (3CLpro; [12]): 0.02 to 0.2 µM
- EC50 [6, 10]: < 1 µM

Structure (SMILES): COc1cccc2[nH]c(C(=O)N3CCC4(CC4)C[C@H]3C(=O)N[C@@H](C[C@@H]3CCNC3=O)C(=O)C(=O)NC3CC3)cc12 [Compound 179]
- EC50 ([1]; numeric bounds): > 10 µM
- CC50 (in vitro [3]): > 10 µM
- CC50 (in vitro [4]; [7]): > 50 µM
- IC50 (human cathepsin L): 1 to 10 µM
- IC50 (HRV3C; [11]): 0.2 to 2 µM
- IC50 (3CLpro; [12]): < 0.02 µM
- EC50 [6, 10]: 10 to 100 µM

Structure (SMILES): COc1cccc2[nH]c(C(=O)N3C[C@@H]4CCC[C@@H]4[C@H]3C(=O)N[C@@H](CN3C[C@H](O)CC3=O)C(=O)C(=O)NC3CC3)cc12 [Compound 178]
- EC50 ([1]; numeric bounds): > 10 µM
- CC50 (in vitro [3]): > 10 µM
- CC50 (in vitro [4]; [7]): > 50 µM
- IC50 (human cathepsin L): ≥ 10 µM
- IC50 (HRV3C; [9]): > 10 µM
- IC50 (3CLpro; [12]): 2 to 20 µM
- EC50 [6, 10]: > 50 µM

Structure (SMILES): COc1cccc2[nH]c(C(=O)N3C[C@@H]4CCC[C@@H]4[C@H]3C(=O)NC(C[C@@H]3CCNC3=O)C(=O)C(N)=O)cc12 (stereo partly drawn) [Compound 56, 3-{[(1S,3aR,6aS)-2-(4-methoxy-1H-indole-2-carbonyl)-hexahydro-1H-cyclopenta[c]pyrrol-1-yl]formamido}-2-oxo-4-[(3S)-2-oxopyrrolidin-3-yl]butanamide]
- EC50 ([1]; class symbols): 10 to 100 µM
- CC50 at 6 days [2]: > 10 µM
- CC50 (in vitro [3]): > 100 µM
- EC50 [5, 8]: 10 to 100 µM
- IC50 (human cathepsin L): ≥ 10 µM
- IC50 (HRV3C; [11]): 0.2 to 2 µM
- IC50 (3CLpro; [12]): 0.02 to 0.2 µM

Structure (SMILES): O=C(NCc1ccccc1)C(=O)[C@H](Cc1cc[nH]n1)NC(=O)[C@@H]1CC2(CC2)CN1C(=O)c1cc2ccccc2[nH]1 [Compound 96, (S)—N—((S)-4-(benzylamino)-3,4-dioxo-1-(1H-pyrazol-3-yl)butan-2-yl)-5-(1H-indole-2-carbonyl)-5-azaspiro[2.4]heptane-6-carboxamide]
- EC50 ([1]; numeric bounds): > 100 µM
- CC50 at 6 days [2]: > 10 µM
- CC50 (in vitro [3]): > 10 µM
- EC50 [5]: 1 to 10 µM
- IC50 (human cathepsin L): 1 to 10 µM
- IC50 (HRV3C; HRV IC50, HRV3C, bound): > 10 µM
- IC50 (3CLpro; [12]): 2 to 20 µM
